Assays:
Septoria nodorum = assay: Assay B-12: Effect against Septoria nodorum/wheat (Septoria leaf spot on wheat); assay type: in vivo; conditions: Septoria nodorum on wheat cv. Arina, 0.02% active substance, spray; for pest or weed control at 0.02 % strength: Parastagonospora nodorum, 264 h, read-out: B12 activity
Protocol: Assay B-12: Effect Against Septoria nodorum/Wheat (Septoria Leaf Spot on Wheat) 1 week old wheat plants cv. Arina are treated with a formulated test compound (0.02% active substance) in a spray chamber. One day after application wheat plants are inoculated by spraying a spore suspension (5×10^5 conidia/ml) on the test plants. After an incubation period of 1 day at 20° C. and 95% r.h. plants are kept for 10 days at 20° C. and 60% r.h. in a greenhouse. The disease incidence is assessed 11 days after inoculation.

[1] = test system: Pyrenophora teres (Helminthosporium); assay: Assay B-10: Effect against Pyrenophora teres (Helminthosporium)/barley (net blotch on barley); assay type: in vivo; conditions: Pyrenophora teres on barley cv. Regina, 0.02% active substance, spray; for pest or weed control at 0.02 % strength: 96 h, read-out: B10 activity
Protocol: Assay B-10: Effect Against Pyrenophora teres (Helminthosporium)/Barley (Net Blotch on Barley) 1 week old barley plants cv. Regina are treated with a formulated testcompound (0.02% active substance) in a spray chamber. Two days after application barley plants are inoculated by spraying a spore suspension (3×10^4 conidia/ml) on the test plants. After an incubation period of 2 days at 20° C. and 95% r.h. plants are kept for 2 days at 20° C. and 60% r.h. in a greenhouse. The disease incidence is assessed 4 days after inoculation.

Fusarium culmorum = assay type: in vivo; conditions: in vivo
Venturia inaegualis = assay: Assay B-5: Residual protective activity against Venturia inaegualis on apples (scab on apple); assay type: in vivo; conditions: Venturia inaegualis on apple seedlings cv. McIntosh; 0.02% active substance, spray
Protocol: Assay B-5: Residual Protective Activity Against Venturia inaegualis on Apples (Scab on Apple) 4 week old apple seedlings cv. McIntosh are treated with the formulated testcompound (0.02% active substance) in a spray chamber. One day after application apple plants are inoculated by spraying a spore suspension (4×10^5 conidia/ml) on the test plants. After an incubation period of 4 days at 21° C. and 95% r. h. the plants are placed for 4 days at 21° C. and 60% r. h. in a greenhouse. After another 4 day incubation period at 21° C. and 95% r. h. the disease incidence is assessed.

Erysiphe graminis = assay: Assay B-6: Effect against Erysiphe graminis on barley (powdery mildew); residual protective / systemic activity; assay type: in vivo; conditions: 0.02% active substance spray (residual) or 0.002% soil (systemic), variant not stated
Protocol: Assay B-6: Effect Against Erysiphe graminis on Barley (Powdery Mildew on Barley) a) Residual Protective Activity […] The infected plants are placed in a greenhouse at 22°. 12 days after infection, the fungal attack is evaluated. b) Systemic Activity […] […] 48 hours later, the plants are dusted with conidia of the fungus. The infected plants are placed in a greenhouse at 22° C. 12 days after infection, the disease incidence is evaluated.

Botrytis cinerea [2] = assay: Assay B-8: Effect against Botrytis cinerea/tomato (Botrytis on tomatoes); assay type: in vivo; conditions: Botrytis cinerea on tomato cv. Roter Gnom; 0.02% active substance, spray
Protocol: Assay B-8: Effect Against Botrytis cinerea/Tomato (Botrytis on Tomatoes) 4 week old tomato plants cv. Roter Gnom are treated with the formulated testcompound 0.02% active substance) in a spray chamber. Two days after application tomato plants are inoculated by spraying a spore suspension (1×10^5 conidia/ml) on the test plants. After an incubation period of 4 days at 20° C. and 95% r. h. in a greenhouse the disease incidence is assessed.

Botrytis cinerea [3] = assay: Assay B-7: Botrytis cinerea/grape (Botrytis on grapes); assay type: in vivo; conditions: Botrytis cinerea on grape seedlings cv. Gutedel; 0.02% active substance, spray
Protocol: Assay B-7: Botrytis cinerea/Grape (Botrytis on Grapes) 5 week old grape seedlings cv. Gutedel are treated with the formulated testcompound (0.02% active substance) in a spray chamber. Two days after application grape plants are inoculated by spraying a spore suspension (1×10^6 conidia/ml) on the test plants. After an incubation period of 4 days at 21° C. and 95% r. h. in a greenhouse the disease incidence is assessed.

Pyricularia oryzae = assay type: in vivo; conditions: Pyricularia oryzae on rice cv. Sasanishiki; 0.02% active substance, spray

Compound: COCC(C)Nc1cc(-c2ccnc(Nc3cccc(OC(F)(F)C(F)F)c3)n2)ccn1 (centres unmarked) [Compound 5]
- B12 activity (Septoria nodorum): + (the activity observed in the corresponding test system is 70% or more)
- B10 activity [1]: + (the activity observed in the corresponding test system is 70% or more)
- B11 activity (Fusarium culmorum): + (key: +: the activity observed in the corresponding test system is 70% or more)

Compound: COCC(C)Nc1cc(-c2ccnc(Nc3cccc(Cl)c3)n2)cc(F)n1 (centres unmarked) [Compound 7]
- B5 activity (Venturia inaegualis): + (the activity observed in the corresponding test system is 70% or more)
- B6 activity (Erysiphe graminis): + (the activity observed in the corresponding test system is 70% or more)
- B10 activity [1]: + (the activity observed in the corresponding test system is 70% or more)

Compound: Clc1cccc(Nc2nccc(-c3ccnc(NCCCN4CCOCC4)c3)n2)c1 [Compound 8]
- B6 activity (Erysiphe graminis): + (the activity observed in the corresponding test system is 70% or more)
- B8 activity (Botrytis cinerea [2]): + (the activity observed in the corresponding test system is 70% or more)

Compound: Clc1cccc(Nc2nccc(-c3ccnc(NCCN4CCOCC4)c3)n2)c1 [Compound 20]
- B12 activity (Septoria nodorum): + (the activity observed in the corresponding test system is 70% or more)
- B6 activity (Erysiphe graminis): + (the activity observed in the corresponding test system is 70% or more)
- B10 activity [1]: + (the activity observed in the corresponding test system is 70% or more)
- B8 activity (Botrytis cinerea [2]): + (the activity observed in the corresponding test system is 70% or more)

Compound: COCCNc1cc(-c2ccnc(Nc3cccc(Cl)c3)n2)ccn1 [Compound 34]
- B12 activity (Septoria nodorum): + (the activity observed in the corresponding test system is 70% or more)
- B7 activity (Botrytis cinerea [3]): + (the activity observed in the corresponding test system is 70% or more)
- B10 activity [1]: + (the activity observed in the corresponding test system is 70% or more)
- B11 activity (Fusarium culmorum): + (key: +: the activity observed in the corresponding test system is 70% or more)
- B8 activity (Botrytis cinerea [2]): + (the activity observed in the corresponding test system is 70% or more)

Compound: OCCNc1cc(-c2ccnc(Nc3cccc(Cl)c3)n2)ccn1 [Compound 37]
- B5 activity (Venturia inaegualis): + (the activity observed in the corresponding test system is 70% or more)
- B9 activity (Pyricularia oryzae): + (the activity observed in the corresponding test system is 70% or more)
- B12 activity (Septoria nodorum): + (the activity observed in the corresponding test system is 70% or more)
- B6 activity (Erysiphe graminis): + (the activity observed in the corresponding test system is 70% or more)
- B7 activity (Botrytis cinerea [3]): + (the activity observed in the corresponding test system is 70% or more)
- B10 activity [1]: + (the activity observed in the corresponding test system is 70% or more)
- B8 activity (Botrytis cinerea [2]): + (the activity observed in the corresponding test system is 70% or more)

Compound: Clc1cccc(Nc2nccc(-c3ccnc(NCCCn4ccnc4)c3)n2)c1 [Compound 43]
- B9 activity (Pyricularia oryzae): + (the activity observed in the corresponding test system is 70% or more)
- B12 activity (Septoria nodorum): + (the activity observed in the corresponding test system is 70% or more)
- B7 activity (Botrytis cinerea [3]): + (the activity observed in the corresponding test system is 70% or more)
- B10 activity [1]: + (the activity observed in the corresponding test system is 70% or more)
- B8 activity (Botrytis cinerea [2]): + (the activity observed in the corresponding test system is 70% or more)

Compound: CC(=O)OCC(C)Nc1cc(-c2ccnc(Nc3cccc(Cl)c3)n2)ccn1 (centres unmarked) [Compound 50]
- B5 activity (Venturia inaegualis): + (the activity observed in the corresponding test system is 70% or more)
- B9 activity (Pyricularia oryzae): + (the activity observed in the corresponding test system is 70% or more)
- B12 activity (Septoria nodorum): + (the activity observed in the corresponding test system is 70% or more)
- B6 activity (Erysiphe graminis): + (the activity observed in the corresponding test system is 70% or more)
- B7 activity (Botrytis cinerea [3]): + (the activity observed in the corresponding test system is 70% or more)
- B10 activity [1]: + (the activity observed in the corresponding test system is 70% or more)
- B8 activity (Botrytis cinerea [2]): + (the activity observed in the corresponding test system is 70% or more)

Compound: Nc1cc(-c2ccnc(Nc3cccc(Cl)c3)n2)ccn1 [Compound 58]
- B5 activity (Venturia inaegualis): + (the activity observed in the corresponding test system is 70% or more)
- B9 activity (Pyricularia oryzae): + (the activity observed in the corresponding test system is 70% or more)
- melting point: 214 to 215 °C
- pest or weed control at 0.02 % strength (Septoria nodorum): > 70%
- B6 activity (Erysiphe graminis): + (the activity observed in the corresponding test system is 70% or more)
- B7 activity (Botrytis cinerea [3]): + (the activity observed in the corresponding test system is 70% or more)
- pest or weed control at 0.02 % strength [1]: > 70%
- B8 activity (Botrytis cinerea [2]): + (the activity observed in the corresponding test system is 70% or more)

Compound: CN(C)c1cc(-c2ccnc(Nc3cccc(Cl)c3)n2)ccn1 [Compound 59]
- melting point: 178 to 179 °C
- pest or weed control at 0.02 % strength (Septoria nodorum): > 70%
- B6 activity (Erysiphe graminis): + (the activity observed in the corresponding test system is 70% or more)
- pest or weed control at 0.02 % strength [1]: > 70%

Compound: O=C(Nc1cc(-c2ccnc(Nc3cccc(Cl)c3)n2)ccn1)C(F)(F)F [Compound 63]
- B5 activity (Venturia inaegualis): + (the activity observed in the corresponding test system is 70% or more)
- B9 activity (Pyricularia oryzae): + (the activity observed in the corresponding test system is 70% or more)
- melting point: 180 to 181 °C
- pest or weed control at 0.02 % strength (Septoria nodorum): > 70%
- B7 activity (Botrytis cinerea [3]): + (the activity observed in the corresponding test system is 70% or more)
- pest or weed control at 0.02 % strength [1]: > 70%
- B8 activity (Botrytis cinerea [2]): + (the activity observed in the corresponding test system is 70% or more)

Compound: COC(OC)C(C)Nc1cc(-c2ccnc(Nc3cccc(Cl)c3)n2)ccn1 (centres unmarked) [Compound 65]
- B5 activity (Venturia inaegualis): + (the activity observed in the corresponding test system is 70% or more)
- B9 activity (Pyricularia oryzae): + (the activity observed in the corresponding test system is 70% or more)
- B12 activity (Septoria nodorum): + (the activity observed in the corresponding test system is 70% or more)
- B6 activity (Erysiphe graminis): + (the activity observed in the corresponding test system is 70% or more)
- B7 activity (Botrytis cinerea [3]): + (the activity observed in the corresponding test system is 70% or more)
- B10 activity [1]: + (the activity observed in the corresponding test system is 70% or more)
- B8 activity (Botrytis cinerea [2]): + (the activity observed in the corresponding test system is 70% or more)

Compound: CC(C)=CCNc1cc(-c2ccnc(Nc3cccc(Cl)c3)n2)ccn1 [Compound 81]
- B12 activity (Septoria nodorum): + (the activity observed in the corresponding test system is 70% or more)
- B6 activity (Erysiphe graminis): + (the activity observed in the corresponding test system is 70% or more)
- B10 activity [1]: + (the activity observed in the corresponding test system is 70% or more)
- B8 activity (Botrytis cinerea [2]): + (the activity observed in the corresponding test system is 70% or more)

Compound: Clc1cccc(Nc2nccc(-c3ccnc(NC4CCOCC4)c3)n2)c1 [Compound 83]
- B12 activity (Septoria nodorum): + (the activity observed in the corresponding test system is 70% or more)
- B10 activity [1]: + (the activity observed in the corresponding test system is 70% or more)
- B11 activity (Fusarium culmorum): + (key: +: the activity observed in the corresponding test system is 70% or more)
- B8 activity (Botrytis cinerea [2]): + (the activity observed in the corresponding test system is 70% or more)

Compound: FC(F)(F)CNc1cc(-c2ccnc(Nc3cccc(Cl)c3)n2)ccn1 [Compound 103]
- melting point: 222 to 223 °C
- pest or weed control at 0.02 % strength (Septoria nodorum): > 70%
- B6 activity (Erysiphe graminis): + (the activity observed in the corresponding test system is 70% or more)
- pest or weed control at 0.02 % strength [1]: > 70%

Source: patent US7109197B2, “N-phenyl-4-(4-pyridyl)-2-pyrimidineamine derivatives” (Syngenta Crop Protection, Inc., priority 2000, dated 2006)
